In the Kinase Knowledgebase extract (Sharma et al. 2016):

Each molecule was assayed against MAPK14 (UniProt Q16539) (assay: p38-alpha Inhibition). Conditions: not given.
Sequence of MAPK14 (Q16539 whole entry, looked up): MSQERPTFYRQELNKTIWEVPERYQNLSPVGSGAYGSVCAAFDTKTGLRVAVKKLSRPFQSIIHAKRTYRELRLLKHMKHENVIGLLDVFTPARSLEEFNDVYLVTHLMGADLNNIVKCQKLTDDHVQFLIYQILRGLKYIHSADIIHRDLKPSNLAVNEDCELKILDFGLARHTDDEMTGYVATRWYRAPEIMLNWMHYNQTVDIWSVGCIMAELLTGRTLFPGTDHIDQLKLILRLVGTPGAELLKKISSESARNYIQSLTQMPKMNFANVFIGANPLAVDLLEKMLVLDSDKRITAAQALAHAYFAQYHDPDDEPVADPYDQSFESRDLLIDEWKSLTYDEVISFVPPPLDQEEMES

SMILES	IC50
ON1=CC=Cc2[nH]c(c3ccncc3)c(c4ccc(F)cc4)c12	6700 nM
CCOCn1c(-c2ccncc2)c(-c2ccc(F)cc2)c2ncccc21	21 nM

Further lines, results first:

IC50	SMILES
68 nM	COn1c(-c2ccncc2)c(-c2ccc(F)cc2)c2ncccc21
2500 nM	ON1=CC=C(C=C1)c2[nH]c3cccnc3c2c4ccc(F)cc4

Each molecule was assayed against MAPK14 (UniProt Q16539) (assay: p38 Kinase Inhibition). Conditions: not given.

IC50	SMILES
11 nM	C[C@]1(C(=O)N2CCOCC2)CO[C@H](c2nc(-c3ccc(F)cc3)c(-c3ccnc(NCc4ccccn4)n3)[nH]2)OC1
> 30000 nM	COc1cc2ncnc(N3CCN(C(=S)NCc4ccccc4)CC3)c2cc1OC
> 30000 nM	COc1cc2ncnc(N3CCN(C(=S)NCc4ccc5c(c4)OCO5)CC3)c2cc1OC

What follows are molecules tested against MAPK14 (human) (UniProt Q16539) (assay: Inhibition of TNF-alpha Production in PBMC Cells). Conditions: not given.
Sequence of MAPK14 (human) (Q16539 whole entry, looked up): as above

IC50	SMILES
5200 nM	COc1cc2c(Nc3cc(NC(=O)c4cccc(N(C)C)c4)ccc3C)ncnc2c(OC)c1OC
3200 nM	CCC(=O)Nc1cc(Nc2ncnc3cc(OC)c(OC)cc23)ccc1F
3600 nM	COc1cc2ncnc(Nc3ccc(C)c(NC(=O)c4ccccc4)c3)c2cc1OC
2000 nM	COc1cc2c(Nc3cc(NC(=O)c4cccc(N(C)C)c4)ccc3C)ncnc2cc1OCCCN1CCOCC1

What follows are molecules tested against CDK2 (human) (UniProt P24941) (assay: Enzyme Assay). Conditions: not given.

IC50	SMILES
360 nM	CC[C@H](CO)Nc1cc(NCc2ccc(-c3ccccn3)cc2)c2ncn(C(C)C)c2n1
420 nM	CC[C@@H](CO)Nc1cc(NCc2ccccc2)c2ncn(C(C)C)c2n1
150 nM	CC[C@@H](CO)Nc1cc(NCc2ccc(-c3ccccn3)cc2)c2ncn(C(C)C)c2n1
300 nM	CC[C@H](CO)Nc1cc(NCc2ccccc2)c2ncn(C(C)C)c2n1

What follows are molecules tested against MAPK14 (human) (UniProt Q16539) (assay: Inhibition of TNF-alpha Production in LPS Stimulated Whole Blood). Conditions: blood cells.

SMILES	IC50
C=CCOCCn1c(SC)nc(-c2ccc(F)cc2)c1-c1ccnc(NC(C)=O)c1	> 100000 nM

These molecules were tested against MAPK14 (UniProt Q16539) (assay: Assessment of MAPK14 Kinase Activity). Conditions: not given.

IC50	SMILES
2.7 nM	CS(=O)(=O)N1CCC(Nc2ncc3c(n2)N2CCN=C2C(c2ccccc2Cl)=C3)CC1
18.8 nM	CC(C)(CO)Nc1ncc2cc(-c3ccccc3Cl)c3nccn3c2n1
6620 nM	O[C@H]1CC[C@H](Nc2ncc3c(n2)N2CCN=C2N(c2ccccc2Cl)C3)CC1
1.4 nM	CC(C)Nc1ncc2cc(-c3ccccc3Cl)c3nccn3c2n1

These molecules were tested against PIK3CA (human) (UniProt P42336) (assay: Antiproliferation of NZOV9 Cell Line Using Thymidine Depletion Assay). Conditions: not given.
Sequence of PIK3CA (human) (P42336 whole entry, looked up): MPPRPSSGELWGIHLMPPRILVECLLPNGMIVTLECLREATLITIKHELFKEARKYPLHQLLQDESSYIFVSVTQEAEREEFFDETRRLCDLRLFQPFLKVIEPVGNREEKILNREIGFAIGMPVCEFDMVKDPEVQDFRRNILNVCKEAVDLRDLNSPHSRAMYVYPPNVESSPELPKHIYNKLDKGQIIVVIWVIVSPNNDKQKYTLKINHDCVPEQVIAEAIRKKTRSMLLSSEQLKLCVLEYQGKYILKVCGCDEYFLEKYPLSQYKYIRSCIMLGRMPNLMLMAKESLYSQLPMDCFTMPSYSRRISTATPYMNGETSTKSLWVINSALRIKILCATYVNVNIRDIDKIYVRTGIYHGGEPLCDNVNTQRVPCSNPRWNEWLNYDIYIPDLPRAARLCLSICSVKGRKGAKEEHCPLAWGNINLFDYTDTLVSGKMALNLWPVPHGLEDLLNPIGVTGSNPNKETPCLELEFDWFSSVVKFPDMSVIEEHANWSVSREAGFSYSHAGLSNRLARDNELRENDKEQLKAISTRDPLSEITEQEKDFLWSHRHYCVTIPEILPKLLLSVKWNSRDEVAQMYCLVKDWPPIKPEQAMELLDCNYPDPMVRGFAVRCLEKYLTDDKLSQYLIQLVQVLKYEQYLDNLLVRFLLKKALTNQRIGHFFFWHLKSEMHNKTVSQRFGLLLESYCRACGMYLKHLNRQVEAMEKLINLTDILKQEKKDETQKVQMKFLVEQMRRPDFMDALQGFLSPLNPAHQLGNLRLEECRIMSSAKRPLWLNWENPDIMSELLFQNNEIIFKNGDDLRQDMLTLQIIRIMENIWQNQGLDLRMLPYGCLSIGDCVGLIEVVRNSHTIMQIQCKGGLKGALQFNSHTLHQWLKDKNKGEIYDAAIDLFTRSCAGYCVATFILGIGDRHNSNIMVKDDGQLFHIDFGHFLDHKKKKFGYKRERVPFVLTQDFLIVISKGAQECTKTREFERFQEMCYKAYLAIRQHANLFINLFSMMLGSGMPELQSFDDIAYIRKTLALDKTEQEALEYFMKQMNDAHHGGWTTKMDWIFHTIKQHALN

IC50	SMILES
> 20000 nM	Cc1ccc([N+](=O)[O-])cc1S(=O)(=O)N(C)N=Cc1cn(C)c2ccccc12

Molecular target: CDK2 (human) (UniProt P24941)
Experiment: Enzyme Assay
Conditions: not given
Remark: another data set of the same source

IC50	SMILES
250 nM	CC[C@H](CO)Nc1cc(NCc2ccc(-c3ccccn3)cc2)c2ncn(C(C)C)c2n1
310 nM	CC[C@@H](CO)Nc1cc(NCc2ccccc2)c2ncn(C(C)C)c2n1
100 nM	CC[C@@H](CO)Nc1cc(NCc2ccc(-c3ccccn3)cc2)c2ncn(C(C)C)c2n1
180 nM	CC[C@H](CO)Nc1cc(NCc2ccccc2)c2ncn(C(C)C)c2n1

The molecules below were run against PIK3CA (human) (UniProt P42336) (assay: Assessment of PI3K Dependent Phosphorylation of p-AKT(T308) in PC3 Cells). Conditions: pc-3.

SMILES	IC50
CSc1c(-c2ccncc2)nc(-c2ccc(NC(=O)Nc3ccc(N4CCOCC4=O)cc3)cc2)nc1N1CCOCC1	291 nM
CCOc1cnc(-c2ccc(NC(=O)Nc3ccc(NS(C)(=O)=O)cc3)cc2)nc1N1CCOCC1	< 10 nM

Continued, values first:

IC50	SMILES
< 10 nM	CSc1c(-c2ccncc2)nc(-c2ccc(NC(=O)Nc3ccc(C(N)=O)cc3)cc2)nc1N1CCOCC1
141 nM	CSc1cnc(-c2ccc(NC(=O)Nc3ccc(N4CCOCC4=O)cc3)cc2)nc1N1CCOCC1

These molecules were tested against ROCK2 (human) (UniProt O75116) (assay: Assessment of ROCK2 Kinase Activity (ProQinase Setup)). Conditions: not given.

IC50	SMILES
100 to 1000 nM	NCc1ccc(C(=O)Nc2ccncc2F)cc1-c1cccc(C(=O)OC[C@H]2CCCO2)c1
100 to 1000 nM	NCc1ccc(C(=O)Nc2ccncc2F)cc1-c1cccc(CC(=O)OC2CC3CCC2C3)c1 (stereo unspecified)
100 to 1000 nM	COCCCOC(=O)c1cccc(-c2cc(C(=O)Nc3ccncc3)ccc2CN)c1
100 to 1000 nM	NCc1ccc(C(=O)Nc2ccncc2F)cc1-c1cccc(CC(=O)OCC2CCCC2)c1

These molecules were tested against ROCK2 (human) (UniProt O75116) (assay: Assessment of ROCK2 Kinase Activity (Fluorescence Polarization Assay)). Conditions: not given.

IC50	SMILES
< 100 nM	CCCOC(=O)c1cc(-c2cc(C(=O)Nc3ccncc3)ccc2C(C)N)c[nH]1 (stereo unspecified)
< 100 nM	CC(N)c1ccc(C(=O)Nc2ccncc2)cc1-c1cccc(C(=O)OCc2ccncc2)c1 (stereo unspecified)
100 to 1000 nM	Cc1ccc(S(=O)(=O)CCOC(=O)c2cccc(-c3cc(C(=O)Nc4ccncc4)ccc3C(C)N)c2)cc1 (stereo unspecified)
100 to 1000 nM	COC(=O)c1cc2c(-c3cc(C(=O)Nc4ccncc4)ccc3C(C)N)cccc2[nH]1 (stereo unspecified)

What follows are molecules tested against PIK3CA (human) (UniProt P42336) (assay: Assessment of PIK3CA Kinase Activity in NZB5 Cells). Conditions: not given.

IC50	SMILES
> 20000 nM	Cc1ccc([N+](=O)[O-])cc1S(=O)(=O)N(C)N=Cc1cnn2cc(Br)ccc12
> 20000 nM	Cc1ccc([N+](=O)[O-])cc1S(=O)(=O)N(C)N=Cc1cnn2cccc(Br)c12

These molecules were tested against EGFR (human) (UniProt P00533) (assay: not given). Conditions: not given.
Sequence of EGFR (human) (P00533 whole entry, looked up): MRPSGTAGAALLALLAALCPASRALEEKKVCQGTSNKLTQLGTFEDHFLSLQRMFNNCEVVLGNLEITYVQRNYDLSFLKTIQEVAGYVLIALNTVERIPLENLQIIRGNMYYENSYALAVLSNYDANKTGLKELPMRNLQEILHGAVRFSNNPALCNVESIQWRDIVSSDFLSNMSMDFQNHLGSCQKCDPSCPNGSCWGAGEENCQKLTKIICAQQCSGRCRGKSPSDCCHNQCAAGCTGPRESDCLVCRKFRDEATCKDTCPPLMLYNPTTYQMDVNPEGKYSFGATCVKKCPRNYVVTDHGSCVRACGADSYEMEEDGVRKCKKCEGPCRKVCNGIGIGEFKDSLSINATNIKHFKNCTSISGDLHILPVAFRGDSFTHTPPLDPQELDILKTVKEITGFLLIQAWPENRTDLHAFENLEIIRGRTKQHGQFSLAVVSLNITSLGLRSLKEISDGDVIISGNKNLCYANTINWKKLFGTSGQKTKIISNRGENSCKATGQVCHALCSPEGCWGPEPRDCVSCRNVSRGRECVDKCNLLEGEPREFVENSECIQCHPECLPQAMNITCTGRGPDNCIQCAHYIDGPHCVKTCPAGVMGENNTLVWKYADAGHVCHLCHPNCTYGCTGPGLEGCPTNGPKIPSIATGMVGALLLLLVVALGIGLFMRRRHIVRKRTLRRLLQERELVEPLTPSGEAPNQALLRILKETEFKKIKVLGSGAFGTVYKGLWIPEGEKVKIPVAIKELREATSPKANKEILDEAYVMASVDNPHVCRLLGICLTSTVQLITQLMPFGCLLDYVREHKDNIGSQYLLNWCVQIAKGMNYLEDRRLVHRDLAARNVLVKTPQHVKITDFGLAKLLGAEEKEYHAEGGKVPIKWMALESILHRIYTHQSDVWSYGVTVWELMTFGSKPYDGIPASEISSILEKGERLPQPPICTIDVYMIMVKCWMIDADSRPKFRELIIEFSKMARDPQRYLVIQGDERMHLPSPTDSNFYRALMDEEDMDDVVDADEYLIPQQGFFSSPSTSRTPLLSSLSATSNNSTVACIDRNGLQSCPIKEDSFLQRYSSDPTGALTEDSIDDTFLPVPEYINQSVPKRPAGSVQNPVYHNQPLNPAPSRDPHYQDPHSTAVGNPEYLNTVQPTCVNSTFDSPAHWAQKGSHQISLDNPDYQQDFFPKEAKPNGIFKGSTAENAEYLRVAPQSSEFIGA

IC50	SMILES
> 100000 nM	COC(=O)CCc1c(SSc2c(CCC(=O)OC)c3ccccc3n2C)n(C)c2ccccc12
26000 nM	CN(C)CCCn1c(SSc2c(C(=O)Nc3ccccc3)c3ccccc3n2CCCN(C)C)c(C(=O)Nc2ccccc2)c2ccccc21
> 100000 nM	Cn1c(SSc2c(C(=O)Nc3ccccc3)c3cc(C(F)(F)F)ccc3n2C)c(C(=O)Nc2ccccc2)c2cc(C(F)(F)F)ccc21
> 100000 nM	Cn1c(SSc2c(C(=O)Nc3cccnn3)c3ccccc3n2C)c(C(=O)Nc2cccnc2)c2ccccc21

What follows are molecules tested against EGFR (UniProt P00533) (assay: not given). Conditions: not given.
Sequence of EGFR (P00533 whole entry, looked up): as above

IC50	SMILES
30000 nM	Cc1oncc1C(=O)Nc1ccc(C(F)(F)F)cc1
> 50000 nM	Cc1cccc(N(C)c2ncnc3[nH]ncc23)c1
> 100000 nM	NC(=O)c1cc2ccc(O)c(O)c2cn1
